Experiments:
Type in all cases: functional, cell-based
HEL = assay: Antiproliferative activity against HEL cells after 72 hrs by MTT assay; conditions: Homo sapiens
K562 = assay: Antiproliferative activity against human K562 cells after 72 hrs by MTT assay; conditions: K562, 72 h
HeLa = assay: Antiproliferative activity against human HeLa cells after 72 hrs by MTT assay
MCF7 = assay: Antiproliferative activity against human MCF7 cells after 72 hrs by MTT assay; conditions: MCF7, 72 h
A549 = assay: Antiproliferative activity against human A549 cells after 72 hrs by MTT assay; conditions: A549, 72 h

CCC(=O)Oc1ccc(C(=O)C2=C3OC(C)(C)[C@@H](CC=C(C)C)C[C@@]34C[C@@H](CC=C(C)C)C(C)(C)[C@H]3CCC(C)(C)O[C@]34OC2=O)cc1OC(=O)CC
IC50 (HEL): 9.52 µM
IC50 (K562): > 20 µM
IC50 (HeLa): 15.4 µM
IC50 (MCF7): > 20 µM
IC50 (A549): > 20 µM

COc1ccc(C(=O)C2=C3OC(C)(C)[C@@H](CC=C(C)C)C[C@@]34C[C@@H](CC=C(C)C)C(C)(C)[C@@](CC=C(C)C)(C2=O)C4=O)cc1O
IC50 (HEL): 13.4 µM
IC50 (K562): 14.5 µM
IC50 (HeLa): 10.9 µM
IC50 (MCF7): > 20 µM
IC50 (A549): > 20 µM

CC(C)=CC[C@H]1C[C@]23C[C@@H](CC=C(C)C)C(C)(C)[C@H]4CCC(C)(C)O[C@]42OC(=O)C(C(=O)c2ccc(OC(=O)c4ccccc4)c(OC(=O)c4ccccc4)c2)=C3OC1(C)C
IC50 (HEL): > 20 µM
IC50 (K562): > 20 µM
IC50 (HeLa): > 20 µM
IC50 (MCF7): > 20 µM
IC50 (A549): > 20 µM

COc1ccc(C(=O)C2=C3OC(C)(C)[C@@H](CC=C(C)C)C[C@@]34C[C@@H](CC=C(C)C)C(C)(C)[C@@](CC=C(C)C)(C2=O)C4=O)cc1OC
IC50 (HEL): > 20 µM
IC50 (K562): > 20 µM
IC50 (HeLa): 19.7 µM
IC50 (MCF7): > 20 µM
IC50 (A549): > 20 µM

CC(C)=CC[C@H]1C[C@@]23C[C@@H](CC=C(C)C)C(C)(C)[C@@](CC=C(C)C)(C(=O)C(C(=O)c4ccc(O)c(O)c4)=C2OC1(C)C)C3=O [CAMBOGIN]
IC50 (HEL): 9.24 µM
IC50 (K562): 14.1 µM
IC50 (HeLa): 16.5 µM
IC50 (MCF7): 10.2 µM
IC50 (A549): 19.2 µM

C=CCOc1ccc(C(=O)C2=C3OC(C)(C)[C@@H](CC=C(C)C)C[C@@]34C[C@@H](CC=C(C)C)C(C)(C)[C@@](CC=C(C)C)(C2=O)C4=O)cc1OCC=C
IC50 (HEL): > 20 µM
IC50 (K562): > 20 µM
IC50 (HeLa): 15.8 µM
IC50 (MCF7): > 20 µM
IC50 (A549): > 20 µM

C=C(C)[C@@H](CC=C(C)C)C[C@@]12C[C@@H](CC=C(C)C)C(C)(C)[C@@](CC=C(C)C)(C(=O)c3c1oc1cc(O)c(O)cc1c3=O)C2=O
IC50 (HEL): 4.5 µM
IC50 (K562): 10.4 µM
IC50 (HeLa): > 20 µM
IC50 (MCF7): > 20 µM
IC50 (A549): > 20 µM

CC(C)=CC[C@H]1C[C@@]23C[C@@H](CC=C(C)C)C(C)(C)[C@@](CC=C(C)C)(C(=O)C(C(=O)c4ccc(OCCCCCBr)c(O)c4)=C2OC1(C)C)C3=O
IC50 (HEL): > 20 µM
IC50 (K562): > 20 µM
IC50 (HeLa): 15.5 µM
IC50 (MCF7): 9.29 µM
IC50 (A549): > 20 µM

CCCCCCCC(=O)Oc1ccc(C(=O)C2=C3OC(C)(C)[C@@H](CC=C(C)C)C[C@@]34C[C@@H](CC=C(C)C)C(C)(C)[C@H]3CCC(C)(C)O[C@]34OC2=O)cc1OC(=O)CCCCCCC
IC50 (HEL): > 20 µM
IC50 (K562): > 20 µM
IC50 (HeLa): > 20 µM
IC50 (MCF7): > 20 µM
IC50 (A549): > 20 µM

C=CC(=O)Oc1ccc(C(=O)C2=C3OC(C)(C)[C@@H](CC=C(C)C)C[C@@]34C[C@@H](CC=C(C)C)C(C)(C)[C@@](CC=C(C)C)(C2=O)C4=O)cc1OC(=O)C=C
IC50 (HEL): > 20 µM
IC50 (K562): > 20 µM
IC50 (HeLa): 10.1 µM
IC50 (MCF7): 4 µM
IC50 (A549): 13.7 µM

CCCCCCCC(=O)Oc1cc(C(=O)C2=C3OC(C)(C)[C@@H](CC=C(C)C)C[C@@]34C[C@@H](CC=C(C)C)C(C)(C)[C@H]3CCC(C)(C)O[C@]34OC2=O)ccc1O
IC50 (HEL): 18.7 µM
IC50 (K562): 15.3 µM
IC50 (HeLa): > 20 µM
IC50 (MCF7): > 20 µM
IC50 (A549): > 20 µM

CC(=O)Oc1ccc(C(=O)C2=C3OC(C)(C)[C@@H](CC=C(C)C)C[C@@]34C[C@@H](CC=C(C)C)C(C)(C)[C@H]3CCC(C)(C)O[C@]34OC2=O)cc1OC(C)=O
IC50 (HEL): > 20 µM
IC50 (K562): > 20 µM
IC50 (HeLa): 5.32 µM
IC50 (MCF7): 4.83 µM
IC50 (A549): 12.3 µM

COc1cccc2c1C(=O)c1c(O)c3c(c(O)c1C2=O)C[C@@](O)(C(=O)CO)C[C@@H]3O[C@H]1C[C@H](N)[C@H](O)[C@H](C)O1 [DOXORUBICIN]
IC50 (HEL): 0.42 µM
IC50 (K562): 0.65 µM
IC50 (HeLa): 1.69 µM
IC50 (MCF7): 1.74 µM
IC50 (A549): 3.16 µM

CC(C)=CC[C@H]1C[C@@]23C[C@@H](CC=C(C)C)C(C)(C)[C@@](CC=C(C)C)(C(=O)C(C(=O)c4ccc(OC(=O)c5ccccc5)c(OC(=O)c5ccccc5)c4)=C2OC1(C)C)C3=O
IC50 (HEL): > 20 µM
IC50 (K562): > 20 µM
IC50 (HeLa): > 20 µM
IC50 (MCF7): > 20 µM
IC50 (A549): > 20 µM

CC(C)=CC[C@H]1C[C@]23C[C@@H](CC=C(C)C)C(C)(C)[C@H]4CCC(C)(C)O[C@]42OC(=O)C(C(=O)c2ccc(OC(=O)c4ccc(Br)cc4)c(OC(=O)c4ccc(Br)cc4)c2)=C3OC1(C)C
IC50 (HEL): > 20 µM
IC50 (K562): > 20 µM
IC50 (HeLa): > 20 µM
IC50 (MCF7): > 20 µM
IC50 (A549): > 20 µM

CC(C)=CC[C@H]1C[C@@]23C[C@@H](CC=C(C)C)C(C)(C)[C@@](CC=C(C)C)(C(=O)C(C(=O)c4ccc(O)c(OS(=O)(=O)c5ccc(C)cc5)c4)=C2OC1(C)C)C3=O
IC50 (HEL): 4.66 µM
IC50 (K562): > 20 µM
IC50 (HeLa): 18.4 µM
IC50 (MCF7): 15.8 µM
IC50 (A549): > 20 µM

COc1ccc(C(=O)Oc2ccc(C(=O)C3=C4OC(C)(C)[C@@H](CC=C(C)C)C[C@@]45C[C@@H](CC=C(C)C)C(C)(C)[C@H]4CCC(C)(C)O[C@]45OC3=O)cc2OC(=O)c2ccc(OC)cc2)cc1
IC50 (HEL): > 20 µM
IC50 (K562): > 20 µM
IC50 (HeLa): > 20 µM
IC50 (MCF7): > 20 µM
IC50 (A549): > 20 µM

CC(C)=CC[C@H]1C[C@@]23C[C@@H](CC=C(C)C)C(C)(C)[C@@](CC=C(C)C)(C(=O)C(C(=O)c4ccc(OCCCCCN5CCOCC5)c(OCCCCCN5CCOCC5)c4)=C2OC1(C)C)C3=O
IC50 (HEL): > 20 µM
IC50 (K562): > 20 µM
IC50 (HeLa): 5 µM
IC50 (MCF7): > 20 µM
IC50 (A549): > 20 µM

C#CCOc1ccc(C(=O)C2=C3OC(C)(C)[C@@H](CC=C(C)C)C[C@@]34C[C@@H](CC=C(C)C)C(C)(C)[C@@](CC=C(C)C)(C2=O)C4=O)cc1OCC#C
IC50 (HEL): 8.89 µM
IC50 (K562): 17.6 µM
IC50 (HeLa): > 20 µM
IC50 (MCF7): > 20 µM
IC50 (A549): > 20 µM

C=C(C)[C@@H](CC=C(C)C)C[C@]12C[C@@H](CC=C(C)C)C(C)(C)[C@](CC=C(C)C)(C1=O)c1oc3cc(O)c(O)cc3c(=O)c1C2=O
IC50 (HEL): > 20 µM
IC50 (K562): > 20 µM
IC50 (HeLa): > 20 µM
IC50 (MCF7): > 20 µM
IC50 (A549): > 20 µM

CC(C)=CC[C@H]1C[C@@]23C[C@@H](CC=C(C)C)C(C)(C)[C@@](CC=C(C)C)(C(=O)C(C(=O)c4ccc(OS(=O)(=O)c5ccc(C)cc5)c(OS(=O)(=O)c5ccc(C)cc5)c4)=C2OC1(C)C)C3=O
IC50 (HEL): > 20 µM
IC50 (K562): > 20 µM
IC50 (HeLa): 6.25 µM
IC50 (MCF7): 3.15 µM
IC50 (A549): 9.53 µM

CC(C)=CC[C@H]1C[C@@]23C[C@@H](CC=C(C)C)C(C)(C)[C@@](CC=C(C)C)(C(=O)C(C(=O)c4ccc(O)c(OC(=O)c5cccs5)c4)=C2OC1(C)C)C3=O
IC50 (HEL): 9.56 µM
IC50 (K562): 13.9 µM
IC50 (HeLa): 10.8 µM
IC50 (MCF7): > 20 µM
IC50 (A549): > 20 µM

C#CCOc1ccc(C(=O)C2=C3OC(C)(C)[C@@H](CC=C(C)C)C[C@@]34C[C@@H](CC=C(C)C)C(C)(C)[C@@](CC=C(C)C)(C2=O)C4=O)cc1O
IC50 (HEL): > 20 µM
IC50 (K562): > 20 µM
IC50 (HeLa): > 20 µM
IC50 (MCF7): > 20 µM
IC50 (A549): > 20 µM

CCC(=O)Oc1cc(C(=O)C2=C3OC(C)(C)[C@@H](CC=C(C)C)C[C@@]34C[C@@H](CC=C(C)C)C(C)(C)[C@H]3CCC(C)(C)O[C@]34OC2=O)ccc1O
IC50 (HEL): 9.71 µM
IC50 (K562): 12.1 µM
IC50 (HeLa): > 20 µM
IC50 (MCF7): > 20 µM
